The text below walks through data of article PMC9908766, “Characterizing metabolic drivers of Clostridioides difficile infection with activity-based hydrazine probes” (Frontiers in Pharmacology, 2023).

The experiment has as its target T1, D-proline reductase (PR), PrdA subunit (Clostridioides difficile, UniProt Q17ZY9).
T1 construct: native PR complex purified from C. difficile VPI 10463; processed PrdA (~23 kDa) with N-terminal pyruvoyl; with PrdB
The experiment in a line: fluorometric OPA assay of 5-aminovalerate production by purified PR. The format is biochemical.

On to `NNCCc1ccccc1` [compound 5, phenelzine], for which the IC50 is 460 ± 30 µM.

As a reminder, the IC50 is the concentration that gives 50% inhibition. Higher therefore signals a need for much substance.
